Source: the supplement of paper PMC10307832

How the values were obtained:
Assay in all cases: relative viability (nuclei count vs DMSO), 5 days (fraction); higher = more cells survive
Afatinib + Vorinostat = compound: CN(C)C/C=C/C(=O)Nc1cc2c(Nc3ccc(F)c(Cl)c3)ncnc2cc1O[C@H]1CCOC1 [Afatinib] + O=C(CCCCCCC(=O)Nc1ccccc1)NO [Vorinostat] (partner 1 µM)
Method in brief: (§1)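 Relative viability equals treated-well nuclei counts divided by vehicle-well nuclei counts. Counts came from 4× images of lung cancer cell lines grown in 1536-well plates for 5 days after pin-tool dosing on the day after seeding. Dosing used one drug alone or a fixed anchor-drug dose plus five library-drug doses (not always all listed) in √10 steps, and values are medians of duplicate plates.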

Afatinib + Navitoclax = compound: CN(C)C/C=C/C(=O)Nc1cc2c(Nc3ccc(F)c(Cl)c3)ncnc2cc1O[C@H]1CCOC1 [Afatinib] + CC1(C)CCC(c2ccc(Cl)cc2)=C(CN2CCN(c3ccc(C(=O)NS(=O)(=O)c4ccc(N[C@H](CCN5CCOCC5)CSc5ccccc5)c(S(=O)(=O)C(F)(F)F)c4)cc3)CC2)C1 [Navitoclax] (partner 0.5 µM)
Method in brief: as §1

Afatinib + Linsitinib = compound: CN(C)C/C=C/C(=O)Nc1cc2c(Nc3ccc(F)c(Cl)c3)ncnc2cc1O[C@H]1CCOC1 [Afatinib] + C[C@]1(O)C[C@@H](c2nc(-c3ccc4ccc(-c5ccccc5)nc4c3)c3c(N)nccn32)C1 [Linsitinib] (partner 1 µM)
Method in brief: as §1

Afatinib + Alpelisib = compound: CN(C)C/C=C/C(=O)Nc1cc2c(Nc3ccc(F)c(Cl)c3)ncnc2cc1O[C@H]1CCOC1 [Afatinib] + Cc1nc(NC(=O)N2CCC[C@H]2C(N)=O)sc1-c1ccnc(C(C)(C)C(F)(F)F)c1 [Alpelisib] (partner 2 µM)
Method in brief: as §1

Row | Cell Line | relative viability (Afatinib + Vorinostat; first compound 0.005 µM) | relative viability (Afatinib + Vorinostat; first compound 0.01581 µM) | relative viability (Afatinib + Vorinostat; first compound 0.05 µM) | relative viability (Afatinib + Vorinostat; first compound 0.1581 µM) | relative viability (Afatinib + Vorinostat; first compound 0.5 µM) | relative viability (Afatinib + Navitoclax; first compound 0.005 µM) | relative viability (Afatinib + Navitoclax; first compound 0.01581 µM) | relative viability (Afatinib + Navitoclax; first compound 0.05 µM) | relative viability (Afatinib + Navitoclax; first compound 0.1581 µM) | relative viability (Afatinib + Navitoclax; first compound 0.5 µM) | relative viability (Afatinib + Linsitinib; first compound 0.005 µM) | relative viability (Afatinib + Linsitinib; first compound 0.01581 µM) | relative viability (Afatinib + Linsitinib; first compound 0.05 µM) | relative viability (Afatinib + Linsitinib; first compound 0.1581 µM) | relative viability (Afatinib + Linsitinib; first compound 0.5 µM) | relative viability (Afatinib + Alpelisib; first compound 0.005 µM) | relative viability (Afatinib + Alpelisib; first compound 0.01581 µM) | relative viability (Afatinib + Alpelisib; first compound 0.05 µM) | relative viability (Afatinib + Alpelisib; first compound 0.1581 µM) | relative viability (Afatinib + Alpelisib; first compound 0.5 µM)
1 | NCI-H2085 | 0.746 | 0.684 | 0.66 | 0.623 | 0.682 | 0.985 | 1.03 | 0.994 | 0.808 | 0.936 | 0.726 | 0.773 | 0.769 | 0.417 | 0.675 | 0.944 | 0.873 | 0.812 | 0.659 | 0.803
2 | IA-LM | 1.1 | 0.964 | 0.866 | 0.81 | 0.892 | 0.689 | 0.821 | 0.906 | 0.796 | 0.933 | 0.67 | 0.713 | 0.502 | 0.571 | 0.601 | 0.653 | 0.658 | 0.691 | 0.693 | 0.797
3 | H3255 | 0.277 | 0.207 | 0.229 | 0.185 | 0.952 | 0.101 | 0.0707 | 0.086 | 0.0584 | 0.076 | 0.197 | 0.124 | 0.149 | 0.123 | 0.138 | 0.209 | 0.135 | 0.168 | 0.123 | 0.123
4 | LOU-NH91 | 0.742 | 0.776 | 0.837 | 0.748 | 0.848 | 0.402 | 0.39 | 0.441 | 0.348 | 0.402 | 0.527 | 0.551 | 0.58 | 0.534 | 0.591 | 0.494 | 0.492 | 0.537 | 0.501 | 0.523
5 | NCI-H3122 | 1.1 | 1 | 1.06 | 0.956 | 0.944 | 1.02 | 0.976 | 1.05 | 0.91 | 1.03 | 1.02 | 1.02 | 0.963 | 0.822 | 1.08 | 0.81 | 0.685 | 0.716 | 0.738 | 0.705
6 | PC-3 [JPC-3] | 0.531 | 0.339 | 0.287 | 0.326 | 0.328 | 0.398 | 0.345 | 0.341 | 0.324 | 0.32 | 0.593 | 0.451 | 0.439 | 0.461 | 0.392 | 0.49 | 0.392 | 0.377 | 0.362 | 0.354
7 | NCI-H1651 | 0.628 | 0.521 | 0.512 | 0.575 | 0.539 | 1.18 | 0.989 | 1.08 | 0.949 | 0.941 | 1.12 | 0.983 | 0.847 | 0.906 | 0.815 | 1.02 | 0.881 | 0.906 | 0.953 | 0.849
8 | NCI-H2087 | 0.658 | 0.625 | 0.968 | 0.91 | 0.592 | 0.996 | 0.957 | 1.11 | 0.837 | 0.925 | 0.985 | 0.916 | 1.01 | 0.918 | 0.986 | 1.23 | 1.18 | 1 | 1.28 | 1.02
